Assay results from PubChem BioAssay (NCI).
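Each compound was tested at five concentrations against cells in 96-well plates for 48 hours. The concentration for full growth arrest is given as TGI.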

Columns and labels:
Assay in all cases: NCI-60 cell line screen, 48 h
[1] = test system: A498 renal
[2] = test system: ACHN renal
[3] = test system: HCC-2998 colon
[4] = test system: HCT-116 colon
[5] = test system: HL-60(TB) leukemia
[6] = test system: HT29 colon
[7] = test system: IGROV1 ovarian
[8] = test system: LOX IMVI melanoma
[9] = test system: MDA-MB-435
[10] = test system: MOLT-4 leukemia
[11] = test system: NCI-H23 lung
[12] = test system: NCI-H522 lung
[13] = test system: SF-268 CNS
[14] = test system: SK-MEL-28 melanoma
[15] = test system: SN12C renal
[16] = test system: SNB-19 CNS
[17] = test system: SR leukemia
[18] = test system: U251 CNS
[19] = test system: UACC-257 melanoma
[20] = test system: UACC-62 melanoma

Row | SMILES | TGI [1] [µM] | TGI [2] [µM] | TGI [3] [µM] | TGI [4] [µM] | TGI [5] [µM] | TGI [6] [µM] | TGI [7] [µM] | TGI [8] [µM] | TGI [9] [µM] | TGI [10] [µM] | TGI [11] [µM] | TGI [12] [µM] | TGI [13] [µM] | TGI [14] [µM] | TGI [15] [µM] | TGI [16] [µM] | TGI [17] [µM] | TGI [18] [µM] | TGI [19] [µM] | TGI [20] [µM]
1 | O=[N+]([O-])c1ccc(NC(=S)Nc2ccccn2)cc1 | 45.6 | > 100 | > 100 | > 100 | > 73.7 | > 100 | > 100 | > 100 | > 100 | > 100 | > 100 | > 100 | > 91.7 | > 100 | > 100 | > 100 | > 100 | > 100 | > 100 | > 100
2 | O=Cc1ccc(-c2cccc([N+](=O)[O-])c2)s1 | 53.4 | > 100 | > 100 | > 100 | > 100 | > 100 | > 100 | > 100 | > 100 | > 100 | > 100 | > 100 | > 100 | > 100 | > 100 | > 100 | > 100 | > 100 | > 100 | > 100
3 | COc1cccc(C[C@H]2COC(=O)[C@]2(O)Cc2cccc(OC)c2)c1 | > 100 | > 100 | > 100 | > 100 | > 100 | > 100 | > 100 | > 100 | > 100 | > 100 | > 100 | > 100 | 39.4 | > 100 | > 100 | > 100 | > 100 | > 100 | > 100 | > 100
4 | OC(C/C(=N\N=C(/CC(O)(C(F)(F)F)C(F)(F)F)c1ccccc1)c1ccccc1)(C(F)(F)F)C(F)(F)F | > 10 | > 10 | > 10 | > 10 | > 10 | > 10 | > 10 | > 10 | > 10 | > 10 | > 10 | > 10 | > 10 | > 10 | > 10 | > 10 | > 10 | > 10 | > 10 | > 10
5 | Clc1ccc(-c2nnc(C34CC5CC(CC(C5)C3)C4)o2)cc1 | > 100 | > 100 | > 100 | > 100 | > 100 | > 100 | > 100 | > 100 | > 100 | > 100 | > 100 | > 100 | > 100 | > 100 | > 100 | > 100 | > 100 | > 100 | > 100 | > 100
6 | O=C(n1c(=O)n(-c2ccc(Cl)cc2)c(=O)n1C(=O)C(Cl)(Cl)Cl)C(Cl)(Cl)Cl | > 100 | > 100 | > 100 | > 100 | > 100 | > 100 | > 100 | > 100 | > 100 | > 100 | > 100 | > 100 | > 100 | > 100 | > 100 | > 100 | > 100 | > 100 | > 100 | > 100
7 | CCSC(=O)/C=C1\CN(C(=O)OC(C)(C)C)C1C(=O)OC(C)(C)C (centres undefined) | 23.9 | 8.82 | 17.2 | 3 | 4.42 | > 35.4 | 14.6 | 3.3 | 8.63 | 4.18 | 8.7 | 5.79 | 21.6 | 3.67 | 7.06 | 25.5 | 2.48 | 19.2 | 8.91 | 10.6
8 | COC(=O)CC1(O)C(/C=C/c2ccccc2)C(C(=O)OC)C(=O)C(C(=O)OC)C1C(=O)OC (centres undefined) | > 100 | > 100 | > 100 | > 100 | > 100 | > 100 | > 100 | > 100 | > 100 | > 100 | > 100 | > 100 | > 100 | > 100 | > 100 | > 100 | > 100 | > 100 | > 100 | > 100
9 | O=C1CCc2cc3c(cc21)CC1(Cc2cc4c(cc2C1)CCCC4)C3 | > 100 | > 100 | > 100 | > 100 | > 100 | > 100 | > 100 | > 100 | 51 | > 100 | > 100 | > 100 | > 100 | > 100 | > 100 | > 100 | 47.7 | > 100 | > 100 | > 100
10 | CC(=O)OCC1OC(n2c(C)c(C(C)=O)c(-c3cccc4ccccc34)c(C#N)c2=S)C(OC(C)=O)C(OC(C)=O)C1OC(C)=O (centres undefined) | > 100 | > 100 | > 100 | > 100 | > 100 | > 100 | > 100 | > 100 | > 100 | > 100 | > 100 | > 100 | > 100 | > 100 | > 100 | > 100 | > 100 | > 100 | > 100 | > 100
11 | Clc1ccc(-c2nc3ccc(C45CC6CC(CC(C6)C4)C5)cc3[nH]2)cc1 | > 100 | > 100 | > 77.7 | > 100 | > 100 | > 100 | > 100 | > 100 | > 100 | > 100 | > 100 | > 100 | > 100 | > 100 | > 100 | > 100 | > 100 | > 100 | > 65.7 | > 100
12 | COC(=O)C1(C)CCCC2(C)C3CCC4CC3(C=C4CO)CCC12 (centres undefined) | > 100 | > 100 | > 100 | > 100 | 43.9 | 30.9 | > 100 | 47.4 | > 100 | 76.4 | > 100 | > 100 | > 100 | > 100 | 60.7 | > 100 | 62 | > 100 | > 100 | > 100
13 | COC(=O)/C=C(/C(=O)OC)c1c(C)cc2c(C)cc(C)cc(C)c1-2 | 70.3 | > 100 | > 100 | 18.5 | > 100 | 28.3 | > 100 | > 57.8 | > 30.5 | > 100 | > 81.1 | 28.4 | > 65.7 | > 100 | 40.2 | > 100 | > 100 | 25.5 | > 77.5 | > 66.5
14 | CC(=O)N1C2=CCCC2(C)c2ccccc21 (centres undefined) | > 100 | > 100 | 99.7 | > 100 | 83.6 | > 100 | > 100 | > 100 | > 100 | > 100 | > 100 | 94.8 | > 100 | > 100 | > 100 | > 100 | > 100 | > 100 | > 100 | > 100
15 | [O-]c1c[n+](CC[n+]2cc([O-])on2)no1 | > 100 | > 100 | > 100 | > 100 | > 100 | > 100 | > 100 | > 100 | > 100 | > 100 | > 100 | > 100 | > 100 | > 100 | > 100 | > 100 | > 100 | > 100 | > 100 | > 100
16 | Cc1cc(-c2nc3cc(O)ccc3s2)ccc1N | 61.7 | 74.7 | > 100 | 42.7 | > 100 | 50.7 | > 100 | > 100 | > 100 | > 100 | > 100 | > 100 | > 100 | 75.5 | 74.2 | > 100 | > 100 | > 100 | > 100 | 44.2
17 | O=CC1C[C@@H](N2C(=O)O[C@@H](c3ccccc3)[C@H]2c2ccccc2)[C@@H]1COCc1ccccc1 (some centres undefined) | 49.2 | 73.2 | 34.9 | 32.8 | 56.7 | 37.8 | 35.4 | 38.6 | 51.4 | 84.4 | 33.4 | 34 | 37.1 | 40.4 | 48 | 37.6 | 45.7 | 30.1 | 41.7 | 39.9
18 | Cc1ccc(S(=O)(=O)NC2=NS(=O)(=O)c3cc(C)c(Cl)cc3S2)cc1 | > 100 | > 100 | > 100 | > 100 | > 100 | > 100 | > 100 | > 100 | > 100 | > 100 | > 100 | > 100 | > 100 | > 100 | > 100 | > 100 | > 100 | > 100 | > 100 | > 100
19 | CN1CCN(CCCCN2c3ccccc3Sc3ccc(N=[N+]=[N-])cc32)CC1 | 29.9 | 22.1 | 18.3 | 13.7 | 3.69 | 4.59 | 23.3 | 7.59 | 3.94 | 7.24 | 35.7 | 13.6 | 28.2 | 3.73 | 26.1 | 33.6 | 7.07 | 16.9 | 4.22 | 4.1
20 | CC(C)(C)N(Cc1ccoc1)C(=O)/C=C\S(=O)c1ccccc1 (centres undefined) | 68.1 | 86.5 | 34.3 | 34.1 | 47.5 | 97.7 | 32.9 | 21.8 | 20.7 | > 100 | 32.3 | 40.5 | > 100 | 44.4 | 58.5 | 88.8 | 77.8 | 29.9 | 46.1 | 39.3
21 | COC(=O)CCC(C)C1CCC2C3CCC4CC5CCC4(C)C3(O5)C(Br)C(Br)C12C (centres undefined) | > 100 | > 100 | > 100 | > 100 | > 100 | > 100 | > 100 | > 100 | > 100 | > 100 | > 100 | > 100 | > 100 | > 100 | > 100 | > 100 | > 100 | > 100 | > 100 | > 100
22 | CCOC(=O)C(=CNC(=S)Nc1c(CC)cccc1CC)C(=O)OCC | > 100 | > 100 | > 100 | > 100 | > 100 | > 100 | > 100 | > 100 | > 100 | > 100 | > 100 | > 100 | > 100 | > 100 | > 100 | > 100 | > 100 | > 100 | > 100 | > 100
23 | Cc1nn(C(=O)Cc2ccccc2)c2c1C(c1ccccc1[N+](=O)[O-])SC(N)=N2 (centres undefined) | > 100 | > 100 | > 100 | > 100 | > 100 | > 100 | > 100 | > 100 | > 100 | > 100 | > 100 | > 100 | > 100 | > 100 | > 100 | > 100 | > 100 |  | > 100 | > 100
